Source: publication PMC9482650, “Quantitative fragmentomics allow affinity mapping of interactomes” (Nature Communications, 2022)
Where two headings read alike, the source gives them in different places. Blank lines part the entries; values can stand above or below the molecule they belong to. Primed or numbered codes have the meaning given here. Ends that are not written are not given here. * marks the point of attachment. Biotin = O=C1N[C@H]2[C@H](CS[C@H]2CCCCC(=O)*)N1; ttds″ = trioxatridecan-succinamic acid linker

Experiments:
CPVL = test: PBM-AP-MS from HeLa extract; format: binding, Homo sapiens; conditions: prey CPVL (Q9H3G5), PBM bait vs biotin control
LIN7C [1] = test: PBM-AP-MS from HeLa extract; format: binding, Homo sapiens; conditions: prey LIN7C (Q9NUP9), PBM bait vs biotin control
LGALS7 = test: PBM-AP-MS from Jurkat extract; format: binding, Homo sapiens; conditions: prey LGALS7 (P47929), PBM bait vs biotin control
Description: Supplement 41467_2022_33018_MOESM5_ESM.xlsx, sheet "Jurkat HPV82-E6" | column: -LOG(P-Value); Difference log2; Ratio HPV82/biot

DLG1 = test: PBM-AP-MS from Jurkat extract; format: binding, Homo sapiens; conditions: Jurkat extract; prey DLG1 (Q12959); PBM bait vs biotin control
Description: (§1) For PBM-AP-MS experiments, 30 μl streptavidin resin was mixed with biotin or peptide at 50–60 μM concentration in 6–6.5 resin volume for 60 min to achieve resin saturation. For PDZ-AP-MS experiments, 30 μl streptavidin resin was mixed with biotinylated MBP or MBP-PDZ at 40-50 μM concentration in >1000× resin volume for 60 min to achieve resin saturation. After saturation, resins were washed a single time (ten resin volume, holdup buffer), and were depleted with biotin (1 mM biotin, 5–10 resin volume, 10 min). Finally, resins were washed two times. 0.5 ml 2 mg/ml cell lysate was added to the dry resin (1 mg total input) and were incubated at 4 °C for 2 h. Then, the beads were washed three times with 10 resin volume buffer containing: 50 mM TRIS pH 8.5, 150 mM NaCl, 1% TritonX-100, 10× complete EDTA-free protease inhibitor cocktail, 2 mM EDTA, 1 mM TCEP. Then, the beads were washed two times with ten resin volume buffer containing: 50 mM TRIS pH 8.5, 150 mM NaCl, 1 mM TCEP. Finally, captured protein was eluted from the resin in two steps and the eluted fractions were pooled. For each elution the beads were incubated for 30 min with three resin volume buffer containing: 20 mM TRIS pH8.5, 100 mM NaCl, 500 μM TCEP, 8 M Urea. Between each step, the beads were separated by mild centrifugation and the supernatant was removed by gentle pipetting.
(§2) Proteins were identified by database searching using SequestHT (Thermo Fisher Scientific) with Proteome Discoverer 2.4 software (PD2.4, Thermo Fisher Scientific) on human FASTA database downloaded from SwissProt (reviewed, release 2020_11_27, 20304 entries, https://www.uniprot.org/). Precursor and fragment mass tolerances were set at 7 ppm and 0.6 Da respectively, and up to two missed cleavages were allowed. Oxidation (M, +15.995 Da) was set as variable modification, and Carbamidomethylation (C, +57.021 Da) as fixed modification. Peptides and proteins were filtered with a false discovery rate at 1%. Label-free quantification was based on the extracted ion chromatography intensity of the peptides. All samples were measured in technical triplicates. The measured extracted ion chromatogram (XIC) intensities were normalized based on median intensities of the entire dataset to correct minor loading differences. For statistical tests and enrichment calculations, not detectable intensity values were treated with an imputation method, where the missing values were replaced by random values similar to the 10% of the lowest intensity values present in the entire dataset. Unpaired two-tailed T-test, assuming equal variance, were performed on obtained log2 XIC intensities. The detection threshold for enriched proteins in AP-MS experiments were analyzed above twofold enrichment with <0.01 P value. Then, proteins with PDZ-domains or PBMs were extracted from the list of enriched proteins. In case only a specific isoform of the detected protein contains a PBM, the identified peptide fragments were manually checked to check which isoform(s) were most likely detected. All raw LC-MS/MS data (from 165 runs) have been deposited to the ProteomeXchange via the PRIDE database with identifier PXD027743.

SCRIB [2] = test: PBM-AP-MS from Jurkat extract; format: binding, Homo sapiens; conditions: Jurkat extract; prey SCRIB (Q14160); PBM bait vs biotin control
Description: as §1, §2

LIN7C [3] = test: PBM-AP-MS from Jurkat extract; format: binding, Homo sapiens; conditions: Jurkat extract; prey LIN7C (Q9NUP9); PBM bait vs biotin control
Description: as §1, §2

MAGI1 = test: PBM-AP-MS from Jurkat extract; format: binding, Homo sapiens; conditions: Jurkat extract; prey MAGI1 (Q96QZ7); PBM bait vs biotin control
Description: as §1, §2

SCRIB [4] = test: PBM-AP-MS from HeLa extract; format: binding, Homo sapiens; conditions: prey SCRIB (Q14160), PBM bait vs biotin control
KRT83 = test: PBM-AP-MS from HeLa extract; format: binding, Homo sapiens; conditions: prey KRT83 (P78385), PBM bait vs biotin control
Description: (§3) Supplement 41467_2022_33018_MOESM5_ESM.xlsx, sheet "HeLa HPV82-E6" | column: -LOG(P-Value); Difference log2; Ratio HPV82E6/Biot

MPP7 = test: PBM-AP-MS from HeLa extract; format: binding, Homo sapiens; conditions: prey MPP7 (Q5T2T1), PBM bait vs biotin control
Description: as §3

TX1BP3 PDZ = target: T1, TX1BP3 PDZ (Homo sapiens, UniProt O14907); test: Holdup assay; format: binding
T1 sequence (O14907 15-112 limits assumed): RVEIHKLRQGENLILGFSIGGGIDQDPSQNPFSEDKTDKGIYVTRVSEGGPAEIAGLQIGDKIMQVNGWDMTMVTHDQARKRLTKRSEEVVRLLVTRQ

SNX27 PDZ = SNX27 PDZ (Homo sapiens, UniProt Q96L92); test: Holdup assay; format: binding
DLG1_2 PDZ = DLG1_2 PDZ (Homo sapiens, UniProt Q12959); test: Holdup assay; format: binding
DLG1_1 PDZ = DLG1_1 PDZ (Homo sapiens, UniProt Q12959); test: Holdup assay; format: binding; conditions: PBM motif of the named protein vs DLG1_1 PDZ; read-out: pKd values – domain-motif, DLG1_1 (converted)
SCRIB_1 PDZ = SCRIB_1 PDZ (Homo sapiens, UniProt Q14160); test: Holdup assay; format: binding
SCRIB2 PDZ = target: T2, SCRIB2 PDZ (Homo sapiens, UniProt Q14160); test: Holdup assay; format: binding
T2 sequence (Q14160 862-950 limits assumed): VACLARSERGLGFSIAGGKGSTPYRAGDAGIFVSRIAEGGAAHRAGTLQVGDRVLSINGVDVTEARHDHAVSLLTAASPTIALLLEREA

[5] = PBM motif of the named protein vs TX1BP3 PDZ, read-out: pKd values – domain-motif, TX1BP3 (converted)
[6] = PBM motif of the named protein vs DLG1_2 PDZ, read-out: pKd values – domain-motif, DLG1_2 (converted)
[7] = PBM motif of the named protein vs SCRIB_1 PDZ, read-out: pKd values – domain-motif, SCRIB_1 (converted)
[8] = holdup affinity of the PBM peptide of the named protein, sheet PBMcomplexome, lower sub-table

Chain of SCRIB_1 PDZ (Q14160 728-815 limits assumed): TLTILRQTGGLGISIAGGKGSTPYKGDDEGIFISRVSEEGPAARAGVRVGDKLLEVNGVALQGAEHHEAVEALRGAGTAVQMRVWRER

Molecule: HPV82-E6 ({Biotin-ttds″}-PPRQRSETQV)
Difference log2 (CPVL): 3.939 | Ratio bait/biot (CPVL): 15.3339 | Difference log2 (LIN7C [1]): 7.066 | Ratio bait/biot (LIN7C [1]): 134.006 | Difference log2 (LGALS7): 4.513 | Ratio bait/biot (LGALS7): 22.8362 | Difference log2 (DLG1): 8.838 | Ratio bait/biot (DLG1): 457.64 | Difference log2 (SCRIB [2]): 7.318 | Ratio bait/biot (SCRIB [2]): 159.61 | Difference log2 (LIN7C [3]): 5.109 | Ratio bait/biot (LIN7C [3]): 34.5003 | Difference log2 (MAGI1): 5.746 | Ratio bait/biot (MAGI1): 53.6695 | Difference log2 (SCRIB [4]): 7.349 | Ratio bait/biot (SCRIB [4]): 163.074 | Difference log2 (KRT83): 3.605 | Ratio bait/biot (KRT83): 12.1643 | Difference log2 (MPP7): 3.556 | Ratio bait/biot (MPP7): 11.7654

Molecule: LCALPKVTTV [AGMAT]
Kd (TX1BP3 PDZ; [5]): 85.1 µM | Kd (SNX27 PDZ): 37.2 µM | Kd (DLG1_2 PDZ; [6]): 1.35 µM | Kd (DLG1_1 PDZ): 10.7 µM | Kd (SCRIB_1 PDZ; [7]): 40.7 µM

Molecule: IKAIVDLTGL [TRAF2]
Kd (SNX27 PDZ; [8]): 309 µM

Molecule: GYDWGPATDL [TJP3/ZO3]
Kd (TX1BP3 PDZ; holdup affinity of the PBM peptide of the named protein, sheet PBMcomplexome, lower sub-table, 3.5 appears to be the floor for no detectable binding, read-out: affinity of PBM to TX1BP3 (pKd) (converted)): 40.7 µM | Kd (SCRIB2 PDZ; holdup affinity of the PBM peptide of the named protein, sheet PBMcomplexome, lower sub-table, 3.5 appears to be the floor for no detectable binding, read-out: affinity of PBM to SCRIB_2 (pKd) (converted)): 166 µM | Kd (SNX27 PDZ; [8]): 229 µM | Kd (DLG1_2 PDZ; holdup affinity of the PBM peptide of the named protein, sheet PBMcomplexome, lower sub-table, 3.5 appears to be the floor for no detectable binding, read-out: affinity of PBM to DLG1_2 (pKd) (converted)): 245 µM | Kd (SCRIB_1 PDZ; holdup affinity of the PBM peptide of the named protein, sheet PBMcomplexome, lower sub-table, 3.5 appears to be the floor for no detectable binding, read-out: affinity of PBM to SCRIB_1 (pKd) (converted)): 174 µM

Molecule: KIEDVEITLV [FCHSD2]
Kd (TX1BP3 PDZ; [5]): 105 µM | Kd (SNX27 PDZ): 9.77 µM | Kd (DLG1_2 PDZ; [6]): 50.1 µM | Kd (DLG1_1 PDZ): 162 µM | Kd (SCRIB_1 PDZ; [7]): 158 µM

The next lines start with the values.

Kd (TX1BP3 PDZ; [5]): 79.4 µM | Kd (SNX27 PDZ): 3.72 µM | Kd (DLG1_2 PDZ; [6]): 91.2 µM | Kd (DLG1_1 PDZ): 309 µM | Kd (SCRIB_1 PDZ; [7]): 66.1 µM
Molecule: PELESKESVL [SLC1A4]

Kd (TX1BP3 PDZ; [5]): 1.02 µM | Kd (SCRIB2 PDZ; PBM motif of the named protein vs SCRIB_2 PDZ, read-out: pKd values – domain-motif, SCRIB_2 (converted)): 269 µM | Kd (SNX27 PDZ): 12.3 µM | Kd (SCRIB_1 PDZ; [7]): 13.8 µM
Molecule: CC(C)C[C@H](NC(=O)[C@H](CC(=O)O)NC(=O)[C@@H](NC(=O)[C@H](CC(=O)O)NC(=O)[C@H](Cc1ccccc1)NC(=O)[C@H](Cc1c[nH]c2ccccc12)NC(=O)[C@H](C)NC(=O)[C@H](CC(C)C)NC(=O)[C@H](CCC(N)=O)NC(=O)[C@@H](N)CC(N)=O)[C@@H](C)O)C(=O)O [CTNNB1]
